The subject of this experiment is rat model of low-fiber diet-induced constipation. Briefly: Rat model of low-fiber diet-induced constipation (Example 2). Particulars: for Fecal weight within 24 hours after the administration: followed by mixed carbohydrate, n=4, Control group 1 0.53, Normal feed group 8.33. As for the experimental part: Compound 2 was weighed and was dissolved in distilled water at preparation concentrations of 3, 10 and 30 mg/mL as the free drug to prepare test compounds.
0.5% methylcellulose (0.5% MC) was used as a vehicle for preparation of lubiprostone. Lubiprostone was weighed and was suspended in 0.5% MC at preparation concentrations of 1, 3 and 10 mg/mL to prepare control substances.
Magnesium sulfate (MgSO4) (Wako pure chemical) was weighed and was dissolved in distilled water at a preparation concentrations of 200 mg/mL to prepare a positive control substance.
A soluble starch, sucrose and lactose monohydrate were weighed at a rate of 6:3:1 and were dissolved in distilled water which was approximately 80% of the amounts of preparation on heating, and then the mixture was added with distilled water to prepare 0.4 g/mL solution of mixed carbohydrate.
A low-fiber diet was prepared based on the literature (Kakino et al. BMC Complementary and Alternative Medicine 2010, 10: 68).
Rats were fed on the low-fiber diet for 1-2 weeks to induce constipation.
Compound 2 (3 mg/kg, 10 mg/kg or 30 mg/kg as free drug), lubiprostone (1 mg/kg, 3 mg/kg or 10 mg/kg), MgSO4 (2000 mg/kg) or a vehicle (distilled water: Control group 1, 0.5% MC: Control group 2) was administered orally at around 9 a.m. using a 1 mL glass syringe and a stomach tube. Then, 0.4 g/mL solution of mixed carbohydrate was administered orally at 2 mL/body to Control group 1 and the groups administered with Compound 2. Distilled water was administered to the normal feed group.
The sum of the fecal weights at the collection times was set as the fecal weight at 24 hours after the administration.
The statistical analysis was made by testing the uniformity of variance using Bartlett's method, and multiple comparison between Control group 1 and the group administered with Compound 2 or Control group 2 and the group administered with lubiprostone was made using Dunnett's method when variance was uniform respectively, and multiple comparison was made using Steel's method when variance was not uniform. In each case, significance level<5% was considered as significant difference.

With `Cc1cc(OCCCNCC(C)(C)C(N)=O)ccc1Cc1c(O[C@@H]2O[C@H](CO)[C@@H](O)[C@H](O)[C@H]2O)n[nH]c1C(C)C.Cc1cc(OCCCNCC(C)(C)C(N)=O)ccc1Cc1c(O[C@@H]2O[C@H](CO)[C@@H](O)[C@H](O)[C@H]2O)n[nH]c1C(C)C.O=C(O)CCCCCCCCC(=O)O` [Compound 2, bis[3-(3-{4-[3-(β-D-glucopyranosyloxy)-5-isopropyl-1H-pyrazol-4-ylmethyl]-3-methylphenoxy}propylamino)-2,2-dimethylpropionamide]monosebacate], the “Fecal weight within 24 hours after the administration” value reads like this: (3 mg/kg as free drug oral) 1.20 g; (10 mg/kg as free drug oral) 4.20 g; (30 mg/kg as free drug oral) 4.93 g. Further, the “Fecal weight during 24 hours versus Control group” value (10 mg/kg or more, versus Control group 1, significance level <5%) was “significantly higher than in each Control group”. The “Dose dependence of fecal weight during 24 hours after the administration” value (oral) is on record as “dose-dependently increased”.

For the origin of these results see US9694027B2, “Pyrazole derivative and use thereof for medical purposes” (KISSEI PHARMACEUTICAL CO. LTD., priority 2012, dated 2017).
